Laboratory results reported in paper PMC3461104 (Journal of medicinal chemistry, 2012).

Tests used:
[1] = test system: human PBMCs; test: Immunoassays for cytokines in human PBMCs; format: cell-based; conditions: hPBMC stimulated 12 h with graded concentrations
[2] = molecular target: T1, human TLR8 (Homo sapiens, UniProt Q9NR97); test: Human TLR8-specific HEK-Blue reporter gene assay; format: cell-based; conditions: human TLR8-transfected HEK293 cells, NF-κB reporter
T1 sequence (Q9NR97 27-1041): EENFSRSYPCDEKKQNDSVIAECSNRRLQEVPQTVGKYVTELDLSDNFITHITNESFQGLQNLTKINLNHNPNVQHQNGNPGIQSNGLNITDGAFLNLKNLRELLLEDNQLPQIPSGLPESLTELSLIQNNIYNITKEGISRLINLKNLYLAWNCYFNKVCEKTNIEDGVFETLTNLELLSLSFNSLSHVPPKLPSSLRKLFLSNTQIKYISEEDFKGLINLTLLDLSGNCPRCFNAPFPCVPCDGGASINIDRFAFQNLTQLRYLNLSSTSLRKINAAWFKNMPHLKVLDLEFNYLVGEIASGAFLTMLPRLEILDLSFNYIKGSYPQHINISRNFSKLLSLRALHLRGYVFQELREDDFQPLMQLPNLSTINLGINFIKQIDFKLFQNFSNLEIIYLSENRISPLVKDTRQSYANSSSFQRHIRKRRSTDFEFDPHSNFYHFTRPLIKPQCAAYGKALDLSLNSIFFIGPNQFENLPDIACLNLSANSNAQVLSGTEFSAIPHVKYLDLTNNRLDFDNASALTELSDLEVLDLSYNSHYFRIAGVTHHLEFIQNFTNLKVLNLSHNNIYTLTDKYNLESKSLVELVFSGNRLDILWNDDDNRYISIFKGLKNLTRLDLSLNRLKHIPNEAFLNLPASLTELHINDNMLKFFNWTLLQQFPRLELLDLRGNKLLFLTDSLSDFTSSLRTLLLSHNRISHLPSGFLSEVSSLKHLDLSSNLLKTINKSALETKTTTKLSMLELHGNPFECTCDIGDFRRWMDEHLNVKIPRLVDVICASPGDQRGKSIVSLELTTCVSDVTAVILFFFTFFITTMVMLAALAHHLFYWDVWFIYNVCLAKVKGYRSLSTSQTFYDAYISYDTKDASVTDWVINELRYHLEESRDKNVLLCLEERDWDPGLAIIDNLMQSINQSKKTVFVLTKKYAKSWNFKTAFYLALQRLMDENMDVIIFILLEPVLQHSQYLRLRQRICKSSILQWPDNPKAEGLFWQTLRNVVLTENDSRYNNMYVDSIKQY

[3] = test system: human PBMCs; test: Transcriptomal profiling in human PBMCs; format: cell-based; conditions: human PBMC, 10 μg/mL, two hours, fold change threshold 2.0
[4] = test system: NF-κB; conditions: previously observed; cited from earlier work
[5] = previously observed; cited from earlier work
[6] = cited from earlier work

| Structure (SMILES) | proinflammatory cytokine induction [1] | dose-response profile (area-under the-curve) remark [2] | other results |
| --- | --- | --- | --- |
| Cc1ncc(CO)c2c(Nc3ccccn3)c(NCc3ccccc3)oc12 [Compound 28, (2-(benzylamino)-7-methyl-3-(pyridin-2-ylamino)furo[2,3-c]pyridin-4-yl)methanol] | none of the furo[2,3-c]pyridines showed any proinflammatory cytokine induction | – | – |
| Cc1ncc(CO)c2c(Nc3ccccc3)c(NCc3ccccc3)oc12 [Compound 36, (2-(benzylamino)-7-methyl-3-(phenylamino)furo[2,3-c]pyridin-4-yl)methanol] | – | Very low AUC | – |
| CCCCNc1oc2c(C)ncc(CO)c2c1Nc1ccccn1 [Compound 37a, (2-(butylamino)-7-methyl-3-(pyridin-2-ylamino)furo[2,3-c]pyridin-4-yl)methanol] | none of the furo[2,3-c]pyridines showed any proinflammatory cytokine induction | – | – |
| CCCCCNc1oc2c(C)ncc(CO)c2c1Nc1ccccn1 [Compound 37b, (7-methyl-2-(pentylamino)-3-(pyridin-2-ylamino)furo[2,3-c]pyridin-4-yl)methanol] | none of the furo[2,3-c]pyridines showed any proinflammatory cytokine induction | – | chemokine ligand gene expression [3]: upregulated several chemokine ligand (both CXCL and CCL) genes; transcriptional signatures of inflammation [3]: no transcriptional signatures of inflammation |
| CCCC(C)Nc1oc2c(C)ncc(CO)c2c1Nc1ccccn1 (stereo not drawn) [Compound 37d, (7-methyl-2-(pentan-2-ylamino)-3-(pyridin-2-ylamino)furo[2,3-c]pyridin-4-yl)methanol] | – | Low AUC | – |
| Cc1ncc(CO)c2c(Nc3ccccn3)c(NC[Si](C)(C)C)oc12 [Compound 37f, (7-methyl-3-(pyridin-2-ylamino)-2-(((trimethylsilyl)methyl)amino)furo[2,3-c]pyridin-4-yl)methanol] | none of the furo[2,3-c]pyridines showed any proinflammatory cytokine induction | – | chemokine ligand gene expression [3]: upregulated several chemokine ligand (both CXCL and CCL) genes; transcriptional signatures of inflammation [3]: no transcriptional signatures of inflammation |
| Cc1ncc(CO)c2c(Nc3ccccn3)c(NCCC(=O)OC(C)(C)C)oc12 [Compound 37i, tert-butyl 3-((4-(hydroxymethyl)-7-methyl-3-(pyridin-2-ylamino)furo[2,3-c]pyridin-2-yl)amino)propanoate] | – | Low AUC | – |
| Cc1ncc(CO)c2c(Nc3ccccn3)c(N[C@@H](C)c3ccccc3)oc12 [Compound 37m, (S)-(7-methyl-2-((1-phenylethyl)amino)-3-(pyridin-2-ylamino)furo[2,3-c]pyridin-4-yl)methanol] | – | Very low AUC | – |
| CCCCCNc1oc2c(C)ncc(CO)c2c1Nc1ccccc1 [Compound 38a, (7-methyl-2-(pentylamino)-3-(phenylamino)furo[2,3-c]pyridin-4-yl)methanol] | – | Low AUC | – |
| CCCCCNc1oc2c(C)ncc(CO)c2c1Nc1cccc(F)c1 [Compound 38b, (3-((3-fluorophenyl)amino)-7-methyl-2-(pentylamino)furo[2,3-c]pyridin-4-yl) methanol] | – | Low AUC | – |
| CCCCCNc1oc2c(C)ncc(CO)c2c1Nc1cccc([N+](=O)[O-])c1 [Compound 38c, (7-methyl-3-((3-nitrophenyl)amino)-2-(pentylamino)furo[2,3-c]pyridin-4-yl)methanol] | – | Low AUC | – |
| Clc1ccc2c(NCCCCNc3ccnc4cc(Cl)ccc34)ccnc2c1 [Compound 41, 7-chloro-N-(4-(7-chloroquinolin-4-ylamino)butyl) quinolin-4-amine] | – | – | NF-κB transactivation [4]: potent NF-κB transactivation; proinflammatory cytokine induction [5]: unaccompanied by any proinflammatory cytokine induction; adjuvantic activity [6]: potent adjuvant |
